Reference: patent US9241962B2, “Water extract of Antrodia camphorata for immunostimulatory effect and preparation method thereof” (Kaohsiung Medical University, priority 2009, dated 2016)

Experiments:
Type in all cases: cell-based, human
DCs [1] = experiment: Polymyxin B test of CD86 and HLA-DR expression on induced DCs; details: DCs treated with polymyxin B, then LPS or ACW; FIG. 7
Description: Polymyxin B is an antibiotic used for inactivating potential LPS contamination when evaluating the activity of different agents on immune cells. Therefore, whether polymyxin B blocks the phenotypic maturation of ACW-induced DCs is determined. […] Accordingly, ACW is able to stimulate the maturation of DCs without LPS contamination.

DCs [2] = experiment: IL-12 production in culture supernatants of stimulated DCs; design: unit not given here; details: LPS; PBS 235.53±2.54; FIG. 9
Description: The preparation method of DCs was mainly prepared and modified from Lin et al, 2006. First, peripheral blood mononuclear cells (PBMCs) were obtained from 12 healthy donors by centrifugation with the Ficoll-Hypaque (Amersham Bioscience, Uppsala, Sweden) density gradient centrifugation. PBMCs were cultured in RPMI 1640 medium supplemented with 10% fetal calf serum, 1 mM L-glutamin, 100 μg/ml streptomycin and 100 U/ml penicillin for 2 hours. The nonadherent cells were removed, and the T cells were purified by nylon wool separation, as the source of mononuclear T lymphocytes. T cells were loaded into the column and the eluted nonadherent cell fraction was rich in T cells. As determined by FACS, the resulting cell population was 80% T cells with a high expression of CD3. The adherent cells were cultured for 6 days in RPMI 1640 medium with 50 ng/ml of granulocyte-macrophage colony-stimulating factor (GM-CSF) and interleukin-4 (IL-4). […] ImDCs were further treated with phosphate buffered saline (PBS), LPS (100 ng/ml) and different doses of ACW for an additional 2 days and then assessed by flow cytometry.
Levels of IL-12, IL-10, IFN-γ and IL-4 in the culture supernatants from DCs or T cells were evaluated by using highly sensitive human cytokine assay kits (R&D Systems, Minneapolis, USA) according to the manufacturer's instructions.

DCs [3] = experiment: Inhibition of MAPKs and PI3K/Akt activation before ACW stimulation of DCs; details: inhibitor 25 μM for 2 hours before ACW; for IL-12 production of DCs induced by ACW after inhibitor pretreatment: FIG. 13(B)
Description: To examine the signal transduction pathways involved in the effects of ACW on DC maturation, DCs were pretreated at 37° C. with ERK inhibitor PD98059 (25 μM), JNK inhibitor SP600125 (25 μM), p38 MAPK inhibitor SB203580 (25 μM) or PI3K/Akt inhibitor LY294002 (25 μM) for 2 hours before stimulation with ACW. After 2 days, phenotyping characteristics of DCs and IL-12 production in the supernatants of DCs were analyzed.

lipopolysaccharide [LPS]
expressions of CD86 and HLA-DR after polymyxin B treatment in advance (DCs [1]): significantly inhibits the expressions of CD86 and HLA-DR | concentration of IL-12 produced by DCs (DCs [2]): 698.45

COc1cccc(-c2cc(=O)c3ccccc3o2)c1N [PD98059]
IL-12 production of DCs induced by ACW after inhibitor pretreatment (DCs [3]): upregulates the IL-12 production

C[S+]([O-])c1ccc(-c2nc(-c3ccncc3)c(-c3ccc(F)cc3)[nH]2)cc1 (centres unmarked) [SB203580]
CD86 expression of the ACW-treated DCs after inhibitor pretreatment (DCs [3]; FIG. 13(A)): inhibit CD86 expression | IL-12 production of DCs induced by ACW after inhibitor pretreatment (DCs [3]): significantly blocks the up-regulation of IL-12 production
